Patent US20040143025A1, “Carbon monoxide generating compunds for treatment of vascular, inflammatory and immune disorders” (priority 2002, published 2004)

Assays:
TNF-α = experiment: LPS-induced serum TNF-α in mice (sandwich ELISA); assay type: in vivo, C57/BL6 mice
Method: (§1) To examine the effect of gaseous CO on the immune system, C57/BL6 mice (B6, Jackson Laboratory, Bar Harbor, Me.) were first exposed to 500 ppm CO in air (Praxair, Danbury, Conn.) for one hour in a sealed chamber before injection of lipopolysaccharide (LPS) (0.3 mg/kg, i.v., Sigma, St Louis, Mo.). After injection, they were exposed to another hour in the CO chamber. Blood samples were collected one hour after LPS injection (through the aortic artery) and the COHb level in whole blood was measured by a whole blood AVOXimeter 4000 (A-VOX Systems, San Antonio, Tex.). Serum samples were separated and were kept at −80° C. until analysis. Serum TNF-α was measured by sandwich ELISA (Biosource, Camarillo, Calif.).
(§2) To reveal the therapeutic potential of CO generators, methylene chloride (MC, Sigma, St. Louis, Mo.) was selected as a lead compound. Different concentrations of MC were prepared by using olive oil as a solvent. Mice were treated with MC at 5 mg/kg., 50 mg/kg, and 500 mg/kg, p.o., one hour before LPS administration.

[1] = tested on: LEW.1W aortic allografts in LEW.1A rats; experiment: Chronic aorta allograft rejection model, morphometry of intima thickness; assay type: in vivo, rat; details: day 30
Method: Animals and aorta transplantation. Transplantations were performed using 250 g inbred male Lewis 1W rats (LEW. 1W, haplotype RT1^u) as donors and LEW.1A rats (haplotype RT1^a) as recipients (CERJ, Le Genest St. Isle, France). These animals are completely mismatched for the entire MHC region. Animal procedures followed European guidelines for animal experimentation. The descending thoracic aortas were harvested, perfused with saline and anastomosed to the recipient's abdominal aorta below the renal arteries and above the aortic bifurcation. Anastomosis was performed in a termino-lateral fashion and the recipient abdominal aorta was ligated between the two-graft anastomosis. […]
MC (Sigma, St. Louis, Mo.) was diluted in olive oil and administered orally on a daily basis (from day 0 to 30) at 500 mg/kg. […] COHb levels were evaluated in heparinized venous blood using the VOXimeter sensor (A-VOX Systems, San Antonio, Tex.) and expressed as the percentage of total hemoglobin. Bicarbonates, soluble CO2, total CO2 and pH were measured using standard clinical biochemistry techniques (Laboratory of Biochemistry, University Hospital of Nantes).
Recombinant adenovirus and gene transfer into the aorta. […] Quantification of infectious adenoviral particles was determined by counting the number of spots (corresponding to individual viral replication events) on infected 293 cells. […]

[2] = tested on: anti-MHC class I alloantibodies; experiment: Detection of alloantibodies (cytofluorimetry); assay type: in vivo, rat; details: vs recipients of control adenovirus-treated aortas
Method: Detection of alloantibodies. Donor LEW.1W splenocyts were incubated with heat-inactivated serum from ELW.1A recipients, serially diluted in PBS. Cells were then washed and simultaneously incubated with FITC-coupled donkey anti-rat IgG (Jackson Laboratories) and with a biotin-labeled anti-B cell Mab (clone OX33, ECACC). After washing, cells were incubated with phycoerythrin-coupled streptavidin. Serum levels of alloantibodies were determined by cytofluorimetry (FACScalibur, Becton Dickinson, San Jose, Calif.) and reported as the mean channel fluorescence (MCF) at each dilution of serum. A predominance of anti-donor MHC class II alloantibodies, as previously described in certain tolerance models (Cuturi et al., Eur. J. Immunol. 24:1627-31 (1994)), is detected by the binding of alloantibodies only to OX33 positive cells (B cells). The presence of anti-MHC class I alloantibodies results in labeling of OX33 negative (T cells) and positive cells. MCF of alloantibody binding to OX33 negative cells indicated the level of anti-MHC I alloantibodies.

[3] = mice exposed to gaseous CO at 500 ppm
Method: as §1, §2

Compound | level of TNF-α (TNF-α; MC 5 mg/kg p.o. one hour before LPS) | level of TNF-α (TNF-α; MC 50 mg/kg p.o. one hour before LPS) | level of TNF-α (TNF-α; MC 500 mg/kg p.o. one hour before LPS) | intimal thickening (mean±SEM) ([1]; allogeneic aortic grafts, MC 500 mg/kg orally daily, adenoviruses 10^10 IP into donor aorta) | infiltrating cells in adventitia (HES) [1] | levels of anti-MHC class I alloantibodies [2] | serum TNF-α levels (TNF-α; LPS 0.3 mg/kg i.v., 500 ppm CO in air 1 h before and 1 h after LPS, blood 1 h after LPS) | O2Hb levels [3]
ClCCl [methylene chloride] | 3720 ± 1666 pg/mL | 3124.2 ± 1147 pg/mL | 2339 ± 770 pg/mL | 8.3±4.5% | moderate reduction | no statistical differences |  | 
[C-]#[O+] [CO, carbon monoxide] |  |  |  |  |  |  | 3,347+1393 pg/ml | 79.18±1.569%
